We go through 14 molecules from paper PMC7785352, “Antioxidant and α-Glucosidase Inhibitory Activities Guided Isolation and Identification of Components from Mango Seed Kernel” (Oxidative Medicine and Cellular Longevity, 2020).

Marks after values point to notes of the source that are not given here.

Test [1] in a line: DPPH radical scavenging activity assay. The following applies: mean ± SD; for IC50: isolated compounds, test concentrations 15.625 to 500 μM. On the procedure:
The DPPH radical scavenging activity assay was determined according to the reported method with minor modifications. Briefly, extract and four fractions were dissolved in methyl alcohol at concentrations ranging from 62.5 to 1000 μg/mL, which were prepared to mix with a methyl alcohol solution of DPPH (0.2 mM, 100 μL) on a 96-well plate. After that, shaken gently and stood at room temperature for 30 min, the optical density (OD) 517 nm in each well were determined by a microplate reader. Triplicates of each sample were run, and the mean values were calculated. Ascorbic acid was chosen as positive control. The percentage inhibition (%) for each sample was calculated by the following formula: (1) Inhibition %=1−Abssamples−Abscontrol/Absblank ×100%.
DPPH solution was replaced by a methanol solution, which was used as control, and samples were replaced by the methanol solution as the black. All the results were expressed as means ± standard deviation (SD).
The antioxidant and α-glucosidase inhibitory activities of each isolated compound at concentrations ranging from 15.625 to 500 μM (DPPH) and from 125 to 2000 μM (α-glucosidase inhibitory), respectively, were determined using the methods described in Section 2.3.
On the technique in general: Loss of DPPH colour is used to gauge radical scavenging.

The target in test [2] is α-Glucosidase from Baker's yeast. Put plainly: α-Glucosidase inhibitory assay (p-NPG substrate, 96-well plate). The test is classed as biochemical. Particulars: isolated compounds; for IC50: test concentrations 125 to 2000 μM, mean ± SD. On the procedure: The α-glucosidase inhibitory assay was performed on a 96-well plate by using a microplate reader according to the published method with minor modifications. […] […] After 5 min incubation at 37°C, 20 μL of 4-pNPG (p-nitrophenyl-α-D-glucopyranoside) (2.5 mM) was added and incubated for 15 min; then, 80 μL of Na2CO3 (0.2 M) was added to stop the reaction. The optical density (OD) values were determined using a microplate reader at 405 nm. Triplicates of each sample were run, and the mean values were calculated. […] The IC50 was calculated by using SPSS software.

For a further test, the target named is α-glucosidase. Put plainly: Inhibitory kinetic analysis (Lineweaver-Burk and Dixon plots). The test is classed as biochemical, Baker's yeast. The following applies: substrate 0.8-5.0 mM, enzyme 1.3 U/mL; for Ki: determined by Dixon plots; for α-Glucosidase inhibitory Inhibition mode: determined by Lineweaver-Burk plots. On the procedure:
The kinetic mechanisms of active compounds 1 and 2 towards α-glucosidase were determined by the graphical views of Dixon and Lineweaver-Burk plots. The concentration ranges for the substrates were 0.8-5.0 mM. The concentration of the enzyme was kept constant at 1.3 U/mL. Lineweaver-Burk plots were established to evaluate the type of inhibition. Dixon plots were used to calculate inhibitory constant (Ki) values of the tested compounds. Each kinetic analysis was implemented in triplicate from which mean Ki values.

With `O=c1c(O)c(-c2ccc(O)c(O)c2)oc2cc(O)cc(O)c12` [Compound 13, Quercetin], the IC50 (commonly the point on the concentration scale where inhibition reaches its midpoint) was found to be 60 ± 0.82 µM in test [1] and 138 ± 7.07 µM in test [2].

Regarding `O=C(OCC1OC(OC(=O)c2cc(O)c(O)c(O)c2)C(OC(=O)c2cc(O)c(O)c(O)c2)C(OC(=O)c2cc(O)c(O)c(O)c2)C1OC(=O)c1cc(O)c(O)c(O)c1)c1cc(O)c(O)c(O)c1` [Compound 2, 1,2,3,4,6-Penta-O-galloyl-α-D-glucoside], inhibition in test [1] was half-maximal at 22.3 ± 0.74 µM (IC50). Also, at α-glucosidase, affinity was put at a Ki of 0.09837 ± 0.00031 µM and the “α-Glucosidase inhibitory Inhibition mode” value is reported as “Competitive”. The molecule `COc1cc(/C=C/C(=O)O)ccc1O` [Compound 11, Ferulic acid] showed a half-inhibitory concentration (IC50) in test [1] of 95 ± 2.41 µM. `COC(=O)c1cc(O)c(O)c(O)c1` [Compound 5, Methyl galate] returned an IC50 in test [1] of 32.3 ± 0.48 µM. Further, the “α-glucosidase inhibitory activity (in words)” value in test [2] is “no inhibitory activity”. For the molecule `O=C(O)/C=C/c1ccc(O)c(O)c1` [Compound 12, Caffeic acid], the IC50 in test [1] turned out to be 36.91 ± 0.3 µM. In the case of `O=C(O)c1cc(O)c(O)c(O)c1` [Compound 6, Gallic acid], the IC50 in test [1] turned out to be 37.8 ± 2.52 µM; in test [2] it was 313 ± 3.71 µM. For `O=C1O[C@H]([C@@H](O)CO)C(O)=C1O` [Ascorbic acid, reference compound], in test [1] (extract and fractions, test concentrations 62.5 to 1000 μg/mL, n = 3), the “DPPH assay IC50” value is 9.37 ± 0.84^e μg/mL.

`O=C(O[C@@H]1O[C@H](CO)[C@@H](O)[C@H](O)[C@H]1O)c1cc(O)c(O)c(O)c1` [Compound 4, 1-O-(3,4,5-Trihydroxybenzoyl)-β-D-glucoside]: the concentration for half-maximal inhibition (IC50) in test [1] was found to be 52.8 ± 0.93 µM. On the same count and under the same terms, the same measure for `Oc1cc(O)c2c(c1)O[C@H](c1ccc(O)c(O)c1)[C@H](O)C2` [Compound 16, Epicatechin]: 40.1 ± 0.82 µM. `O=C(OC[C@H]1O[C@@H](OC(=O)c2cc(O)c(O)c(O)c2)[C@H](OC(=O)c2cc(O)c(O)c(O)c2)[C@@H](OC(=O)c2cc(O)c(O)c(O)c2)[C@@H]1OC(=O)c1cc(O)c(O)c(O)c1)c1cc(O)c(O)c(O)c1` [Compound 1, 1,2,3,4,6-Penta-O-galloyl-β-D-glucoside] showed an IC50 in test [1] of 2.93 ± 1.06 µM. For the same molecule, at α-glucosidase, the inhibition constant Ki (commonly a measure of affinity in units of concentration, obtained from inhibition or displacement) stood at 0.73295 ± 0.00022 µM and the “α-Glucosidase inhibitory Inhibition mode” value is listed as “Noncompetitive”. In the case of `O=C(O)c1ccc(O)c(O)c1` [Compound 7, 3,4-Dihydroxybenzoic acid], the results for the concentration for half-maximal inhibition (IC50) in test [1] and in test [2] were 38.2 ± 1.03 µM and 425 ± 31.5 µM, respectively. As for `CCOC(=O)c1cc(O)c(O)c(O)c1` [Compound 10, Ethyl gallate], in test [1], the IC50 stood at 38 ± 1.94 µM. In addition, in test [2], the “α-glucosidase inhibitory activity (in words)” value is recorded as “no inhibitory activity”. Taken in the same sequence, the figures for `O=C(OCC(O)CO)c1cc(O)c(O)c(O)c1` (stereo not shown) [Compound 9, 1-Glycerol gallate] were over 500 µM and “no inhibitory activity”. Take `O=C(OC[C@H]1O[C@@H](OC(=O)c2cc(O)c(O)c(O)c2)[C@H](OC(=O)c2cc(O)c(O)c(O)c2)[C@@H](OC(=O)c2cc(O)c(O)c(O)c2)[C@@H]1O)c1cc(O)c(O)c(O)c1` [Compound 3, 1,2,3,6-Tetra-O-galloyl-β-D-glucoside]: the half-inhibitory concentration (IC50) was found to be 23.7 ± 0.52 µM in test [1] and 243.3 ± 1.43 µM in test [2].
